{
  "source": "patent US20230340149A1",
  "about": "“METHODS OF TREATMENT OF INFLAMMATORY BOWEL DISEASES” (INSERM (INSTITUT NATIONAL DE LA SANTÉ ET DE LA RECHERCHE …, priority 2020, published 2023)",
  "key": {"mouse colon": {"system": "mouse colon", "assay": "Daily intracolonic administration of thrombin in mice, inflammation parameters", "assay_type": "in vivo", "experimental": "Thrombin (specific activity 2000 NIH units/mg protein, T6884, Sigma) was administered daily for 10-days intracolonically daily (5 U/mouse in 50 μl in saline, 0.9% NaCl) under light anaesthesia (3% isoflurane) in PAR-1^−/−, PAR4^−/−, littermates and in mice purchased from Janvier laboratories. Controls received heat-inactivated thrombin (same dose, 10 minutes at 100° C.) or saline alone. After intracolonic instillation, mice were kept upside-down for 2-min to allow colonic diffusion of the administered solution. After 10-days, mice were sacrificed by cervical dislocation and inflammation parameters were measured.\nTNBS colitis was induced in fasted rats as previously described^20,21. Animals were housed in ventilated cages, acclimatized for one week before experiment started and beddings were mixed twice. Briefly, TNBS was prepared at a final concentration of 120 mg/ml in 50% ethanol in saline and was kept in the dark before use. A catheter was inserted at 8 cm from the anus and 30 mg of the TNBS solution was instilled through the catheter into the lumen in a final volume of 250 μl/rat. For TNBS colitis induction in mice, fasted animals were lightly anesthetized with halothane. A polyethylene catheter was inserted intracolonically 4 cm from the anus and TNBS (2 mg/mouse in 100 μl) dissolved in a solution of saline plus 40% ethanol was pushed into the catheter. At time of the sacrifice, colonic tissues were harvested. Before opening the colon, luminal washes with a PBS solution were performed in order to measure thrombin activity in those washes. Colons were then cut opened. Macroscopic damage scores were evaluated as previously described^9, by a skilled observer unaware of the treatments. When observed, the following parameters were given score of 1: hemorrhage, edema, stricture, ulceration, fecal blood, mucus, and diarrhea. Erythema was scored a maximum of 2 depending on the length of the area being affected (0, absent; 1, less than 1 cm; and 2, more than 1 cm). Adhesion was scored based on its severity (0, absent; 1, moderate; and 2, severe). Colon thickness was measured using an electronic caliper (Mitutoyo, Mississauga, Canada, resolution 0.01 mm). MPO activity was measured as an index of granulocyte infiltration as previously described. Tissue samples were homogenized in a solution of 0.5% hexadecyltrimethylammonium bromide dissolved in phosphate buffer solution (pH 6.0) for 1 min. Homogenized tissues were centrifuged at 13 000 g for 2 min. Supernatants were added to a buffer supplemented with 1% hydrogen peroxide, and O-dianisidine dihydrochloride solution. Optical density readings were taken for 1 min at 30 s intervals at 450 nm^22. Results were normalized to total protein content and expressed as OD450 nm/min/μg/ml. For bacterial translocation assays, mesenteric lymph nodes were collected aseptically, weighed and homogenized before being plated at 37° C. in Columbia blood agar (BD Biosciences) for 24 h for aerobes, and for 48 h for anaerobes left in anaerobic jars^9. For permeability assays, mice received orally 4-kDa FITC Dextran (Sigma Aldrich) at the dose of 600 mg/kg body weight in PBS, and blood was collected 1-h after. Fluorescence for FITC-Dextran presence in serum was measured by spectrophotometry (excitation 485 nm, emission 528 nm)^23. Apoptosis was measured by TUNEL (terminal deoxynucleotidyl transferase dUTP nick end labeling) staining in mouse colonic tissues as previously described^24,25. Five random fields were captured per tissue section and percent of apoptotic cells was determined by an observer unaware of the treatments."}, "[1]": {"system": "human mucosa-associated microbiota biofilms", "assay": "Adhesion of bacteria dispersed from thrombin-exposed human mucosal biofilms to Caco2 monolayers", "assay_type": "cell-based", "details": "biofilms exposed to 1 U/ml", "experimental": "Methods for FIG. 7. Panel A: Mucosa-associated microbiota was extracted from 4 healthy human colon biopsies (collected in Toulouse Hospital under ethic approval CODECOH Colic-DC2015-2443), under anaerobic condition, and were seeded into the Calgary Biofilm Device (Innovotech, Canada) to develop a multispecies biofilm. After 48 hours of incubation (37° C., anaerobic environment), biofilms were exposed to various concentrations of human thrombin (0, 10, 100 and 1000 milliunit/ml). After 24 hours, dispersed bacteria from thrombin-treated biofilms were collected and apically exposed to human epithelial monolayers on 12-wells plates (Caco2, ATCC HB37). Bacterial adhesion to epithelial surface was assessed. Briefly, after 90 minutes of co-culture, cells were vigorously washed in PBS, and lyzed in Triton X100 0.1% for 10 minutes, after which live cell bacteria were counted on Columbia blood agar (CFU were counted after 24 hours incubation of plates at 37° C.). Data represent fold change CFU/ml count compared to untreated controls (=1). ANOVA with Fisher's LSD test, *P<0.05, ***P<0.001."}, "[2]": {"system": "adherent-invasive Escherichia coli (strain LF82) biofilms", "assay": "Adhesion and invasion of bacteria from thrombin-exposed E. coli LF82 biofilms on Caco2 monolayers", "assay_type": "cell-based", "experimental": "Panel B) Biofilms of adherent-invasive Escherichia coli (strain LF82) were formed into the Calgary Biofilm Device (Innovotech, Canada). After 48 hours of incubation (37° C., anaerobic environment), biofilms were exposed to various concentrations of human thrombin (0, 10, 100 to 1000 milliunit/ml). After 24 hours, dispersed bacteria from thrombin-treated biofilms were collected and apically exposed to human epithelial monolayers on 12-wells plates (Caco2, ATCC HB37). Bacterial adhesion to epithelial surface was assessed. Briefly, after 90 minutes of co-culture, cells were vigorously washed in PBS, and lyzed in Triton X100 0.1% for 10 minutes, after which live cell bacteria were counted on Columbia blood agar (CFU were counted after 24 hours incubation of plates at 37° C.). Data represent fold change CFU/ml count compared to untreated controls (=1). ANOVA with Fisher's LSD test, *P<0.05\nPanel C) Mucosa-associated microbiota was extracted from 3 healthy human colon biopsies (collected in Toulouse Hospital under ethic approval CODECOH Colic-DC2015-2443), under anaerobic condition, and were seeded into the Calgary Biofilm Device (Innovotech, Canada) to develop a multispecies biofilm. After 48 hours of incubation (37° C., anaerobic environment), biofilms were exposed to human thrombin (0 and 100 milliunit/ml). […] Bacterial invasion into epithelial cells was assessed. […]"}, "[3]": {"system": "thrombin activity in human colonic tissues from CD patients", "assay": "In situ zymography of thrombin activity on frozen colonic tissue sections", "assay_type": "biochemical", "details": "CD patient colonic cryo-sections, 10 μM, data not shown"}, "[4]": {"system": "TNBS-induced colitis in rats", "assay": "TNBS-induced colitis in rats, daily intracolonic treatment", "assay_type": "in vivo, rat", "details": "vs vehicle"}, "[5]": {"details": "in vivo, cited from earlier work"}, "[6]": {"details": "cited from earlier work"}, "cytochrome P450 enzymes": {"system": "cytochrome P450 enzymes", "details": "cited from earlier work"}, "IBD patients": {"system": "IBD patients", "details": "in vivo; cited from earlier work"}, "[7]": {"details": "highly basic guanidine; cited from earlier work"}, "[8]": {"details": "50 μl of 100 U/ml per mouse daily for 10 days, vs vehicle (saline)"}, "[9]": {"details": "HAT 1, 2, 3 studies, HIT, versus historical controls"}},
  "note": "Where two headings read alike, the source gives them in different places.",
  "data": [
    {"molecule": "thrombin", "values": [
      {"measurement": "translocation of aerobic bacteria into mesenteric lymph nodes", "setting": "mouse colon; 50 μl of 100 U/ml per mouse daily for 10 days", "value": "caused the translocation"},
      {"measurement": "colon thickness", "setting": "mouse colon; [8]", "value": "significant increase"},
      {"measurement": "macroscopic damage", "setting": "mouse colon; [8]", "value": "caused macroscopic damage"},
      {"measurement": "damage score, wall thickness and MPO activity", "setting": "mouse colon; PAR4-deficient mice", "value": "significantly reduced"},
      {"measurement": "macroscopic damage, colonic wall thickness and MPO activity", "setting": "mouse colon; PAR-1-deficient mice", "value": "still exhibited significant"},
      {"measurement": "translocation of anaerobic bacteria", "setting": "mouse colon; vs vehicle or boiled thrombin", "value": "not significantly different"},
      {"measurement": "potential to adhere to human intestinal epithelium monolayers", "setting": "[1]", "value": "increased"},
      {"measurement": "adhesion to human intestinal epithelium monolayers", "setting": "[2]; biofilms exposed to 0.01 U/ml", "value": "adhered significantly more"},
      {"measurement": "ability to invade human intestinal epithelium monolayers", "setting": "[2]; biofilms exposed to 0.1 U/ml", "value": "significantly increased"}
    ]},
    {"molecule": "[H]/N=C(/N)c1ccc(NCc2nc3cc(C(=O)N(CCC(=O)O)c4ccccn4)ccc3n2C)cc1", "note": "[Dabigatran]", "values": [
      {"measurement": "thrombin activity detected in tissue (VPR-AMC substrate)", "setting": "[3]", "value": "inhibited"},
      {"measurement": "MPO activity", "setting": "[4]; 100 μl 5 μM", "value": "reducing significantly"},
      {"measurement": "colon thickness", "setting": "[4]; 100 μl 5 μM", "value": "reducing significantly"},
      {"measurement": "macroscopic damage score", "setting": "[4]; 100 μl 5 μM", "value": "reducing significantly"},
      {"measurement": "weight loss", "setting": "[4]; 100 μl 5 μM", "value": "reducing significantly"},
      {"measurement": "blood in the feces (fecal bleeding score)", "setting": "[4]", "value": "reduced significantly"},
      {"measurement": "oral availability / oral activity", "setting": "[5]", "value": "not orally active"}
    ]},
    {"molecule": "lepirudin", "values": [
      {"measurement": "risk for major bleeding", "setting": "[6]; [9]", "value": "increased"},
      {"measurement": "risk of new thrombosis", "setting": "[6]; [9]", "value": "decreased"}
    ]},
    {"molecule": "CCOC(=O)CN[C@@H](C(=O)N1CC[C@H]1C(=O)NCc1ccc(/C(N)=N\\O)cc1)C1CCCCC1", "note": "[Ximelagatran]", "values": [
      {"measurement": "hepatic toxicity", "setting": "[6]; treatment for over 35 days", "value": "linked with the risk of hepatic toxicity"}
    ]},
    {"molecule": "desirudin", "values": [
      {"measurement": "bleeding rates versus heparin", "setting": "[6]; in vivo", "value": "similar"},
      {"measurement": "rate of proximal deep vein thrombosis", "setting": "[6]; in vivo", "value": "reduced"},
      {"measurement": "prevention of VTE", "setting": "[6]; versus enoxaparin or unfractionated heparin", "value": "superior"}
    ]},
    {"molecule": "bivalirudin", "values": [
      {"measurement": "rate of bleeding compared to heparin", "setting": "[6]; acute coronary syndrome", "value": "lower rate of bleeding"},
      {"measurement": "excreted by the kidneys", "setting": "[5]", "value": "about 20%"}
    ]},
    {"molecule": "CCCCCCOC(=O)NC(=N)c1ccc(NCc2nc3cc(C(=O)N(CCC(=O)OCC)c4ccccn4)ccc3n2C)cc1", "note": "[dabigatran etexilate]", "values": [
      {"measurement": "hepatic toxicity", "setting": "[6]; long-term treatment", "value": "has not been linked with hepatic toxicity"},
      {"measurement": "interaction with cytochrome P450 enzymes", "setting": "cytochrome P450 enzymes", "value": "lacks interaction"},
      {"measurement": "eliminated by the kidneys", "setting": "[5]", "value": "> 80", "unit": "%"},
      {"measurement": "plasma half-life", "setting": "[5]", "value": "approximately 12 hours"}
    ]},
    {"molecule": "heparin", "values": [
      {"measurement": "benefit of treatment in IBD patients", "setting": "IBD patients", "value": "some benefits"}
    ]},
    {"molecule": "CC1CNc2c(cccc2S(=O)(=O)N[C@@H](CCCNC(=N)N)C(=O)N2CC[C@@H](C)C[C@@H]2C(=O)O)C1", "note": "(some centres unmarked) [Argatroban]", "values": [
      {"measurement": "pKa", "setting": "[7]", "value": 13},
      {"measurement": "plasma half-life", "setting": "[5]", "value": "approximately 45 minutes"}
    ]},
    {"molecule": "N=C(N)c1ccc(CNC(=O)[C@@H]2CCN2C(=O)[C@H](NCC(=O)O)C2CCCCC2)cc1", "note": "[melagatran]", "values": [
      {"measurement": "oral availability / oral activity", "setting": "[5]", "value": "poorly orally available"}
    ]},
    {"molecule": "hirudin", "values": [
      {"measurement": "incidence of bleeding compared with heparin", "setting": "[6]; meta-analysis of 11 randomized trials, acute coronary syndrome", "value": "significantly higher incidence of bleeding"},
      {"measurement": "distributed in the extravascular compartment", "setting": "[5]", "value": 80, "unit": "%"},
      {"measurement": "found in the plasma", "setting": "[5]", "value": 20, "unit": "%"}
    ]}
  ]
}
